Measurements reported in patent US20170065554A1, “ACTIVATED SOY POD FIBER” (priority 2014, published 2017).
Values joined by “and” are separate entries in the source; they are usually repeats but may differ in a detail not shown here. Equal values may be shown once.

Tested on: 3T3-L1 adipocytes
Test: [3H]-2-deoxy-glucose uptake by adipocytes
Format: cell-based, Murine
Method: To determine if one mechanism for glyceollins to improve the oral glucose challenge in a prediabetic model is by increasing the glucose uptake by fat, glyceollin pharmacology was studied in 3T3-L1 cells. Murine preadipocytes (Zen-Bio Inc.) were cultured using PM-1-L1 medium (Zen-Bio Inc.) containing Dulbecco's modified Eagle's medium (DMEM)/Ham's F-10 medium (1:1, v/v), HEPES 15 mM (pH 7.4), 10% (v/v) fetal bovine serum, penicillin (100 U/ml), streptomvcin ([…]), and amphotericin B (0.25 μg/ml) in a humidified atmosphere (5% CO2/95% air). After 3-4 days, confluent cells were placed in differentiation medium (DM-2-L1, Zen-Bio Inc.) containing DMEM/Ham's F-10 medium (1:1, v/v), HEPES 15 mM (pH 7.4), 3% (v/v) fetal bovine serum, biotin ([…]), pantothenate (17 μM), human insulin (100 nM), dexamethasone (1 μM), penicillin (100 U/ml), streptomycin (100 μg/ml), amphotericin B (0.25 μg/ml), isobutylmethylxanthine ([…]) and PPARγ agonist (10 μM) and further incubated in the humidified atmosphere for 3 days. […]
Adipocytes were rinsed in sterile, fresh KRH buffer (HEPES pH=7.4, 1 mM CaCl2, 1.2 mM MgSO4, 1 mM KH2PO4, 1.4 mM KCl, […], 130 mM NaCl), and then preincubated for 24 h in KRH buffer. […] The vials were mixed and counted for 10 min in an Applied Biosystems 1100 liquid scintillation counter using the factory preset window to detect tritium.

## insulin
0.3 nM-300 nM insulin
  maximal stimulation relative to basal glucose uptake: about 3 times
Insulin 30 min at 37° C., then 10 min [3H]-2-deoxy-glucose, read-out: EC50 of insulin-mediated glucose uptake
  EC50: 1.9 nM and 1.92 nM
